Measured values from patent US9802917B2, “Particles of N-(5-cyano-4-((2-methoxyethyl)amino)pyridin-2-yl)-7-formyl-6-((4-methyl-2-oxopiperazin-1-yl)methyl)-3,4-dihydro-1,8-naphthyridine-1(2H)-carboxamide” (Novartis AG, priority 2015, dated 2017).
Counter-ions that a name gives are not always drawn.

Columns and labels:
[1] = test system: HuH-7 hepatocellular carcinoma cells; assay: Methylene blue staining proliferation assay (MBS); format: cell-based; conditions: Homo sapiens, HuH-7 cells, 72 hours, read-out: HUH7 proliferation (nM) MBS
Experimental: Using a liquid handling device (Velocity 11 Bravo, Agilent), serial 3-fold dilutions of compounds were prepared in DMSO, prediluted in growth medium, followed by transfer of 10 uL/well to the cell plates. […] For data analysis, the assay background was determined in wells containing medium and lysis buffer, but no cells, and the corresponding value subtracted from all data points. […] Compound concentrations leading to half-maximal signal inhibition ([…]) were determined by standard four parametric curve fitting (XLfit 5.4, IDBS). […] Optical density was measured at A650 nm. […]

[2] = Basic flow energy measurement (FT4 powder rheometer); format: physicochemical; conditions: 25 mm vessel, 23.5 mm blade
Experimental: Basic flow energy (BFE) is the energy required to establish a particular flow pattern in a conditioned, precise volume of powder. This flow pattern is a downward anti-clockwise motion of the blade, generating a compressive, relatively high stress flow mode in the powder. The BFE is calculated from the work done in moving the blade through the powder from the top of the vessel to the bottom, i.e. during the downward traverse.
In the present instance, the basic flow energy was measured using a FT4 powder rheometer from Freeman Technology under the following conditions: vessel size: 25 mm; standard Program Name: 25 mm_1C_Split_1 T; Starting accessory: 23.5 mm blade; Vessel: 25 mm×25 mL Split Vessel. The results were plotted in FIG. 9.

[3] = test system: HuH-7 hepatocellular carcinoma cells; assay: CellTiter Glo (CTG) proliferation/viability assay; format: cell-based; conditions: Homo sapiens, 72 h, HuH-7 cells, 3 days, GI50, read-out: HUH7 proliferation (nM) CTG
Experimental: CellTiter Glo (CTG) Assay: […] Compound-mediated suppression of cell proliferation/viability is assessed by quantification of cellular ATP levels using the CellTiter-Glo (CTG) reagent (Promega, Cat# G7573). Briefly, cells are seeded at 3'000 cells/well/80 μl fresh medium into tissue-culture-treated 96-well plates (Costar Cat#3904), followed by addition of 20 μl medium containing compound dilutions at 5-fold their final intended concentration. Dose-response effects are assessed by 3-fold serial dilutions of the test compound, starting at 10 μM. Following incubation of the cells for 3 days at 37° C. and 5% CO2, the effect of inhibitors on cell viability is quantified following addition of 50 μl CTG and luminescence measurement (integration time: 500 ms) as per vendor manual, using a correspondingly equipped multi-mode plate reader ([…], TECAN, Switzerland). For data analysis, the assay background value determined in wells containing medium, but no cells, is subtracted from all data points. To enable differentiation of cytotoxic from cytostatic compounds, the number of viable cells is assessed relative to that observed at the time of compound addition using a separate cell plate (day 0). […] Compound concentrations leading to half-maximal growth inhibition (GI50) are determined using standard four parameter curve fitting (XLfit 5.2, IDBS, UK).

[4] = Laser diffraction particle size measurement of particles of reference example 1 (Example 4); format: physicochemical; conditions: laser light diffraction, after 240 seconds sonication, FIG. 7
From the text: For the measurement, a Sympatec HELOS device with a focal length of 100 mm from Sympatec GmbH, Germany, equipped with a wet dispersion device Cuvette from Sympatec GmbH, Germany was used. The test substance was dispersed in white spirit, Brenntag Schweizerhall AG, Switzerland (catalog number 12200-150) using a dispersing aid (e.g. Statsafe™ 6000, INNOSPEC Limited, ca. 1% in the white spirit).
The particles were mixed intensively, e.g. on a vortex mixer, in order to wet the substance thoroughly and to form a smooth and homogeneous paste. The paste was diluted with the white spirit to a final volume of several milliliters and the stock dispersion was mixed again.
The test dispersion was prepared by diluting of the stock dispersion with white spirit for an appropriate optical concentration and the cumulative volume distribution was determined using a laser light diffraction instrument in accordance with the instruction manual. Measurements were made before sonication and after sonication for up to 600 seconds. The parameters were set as follows: 50% amplitude at the ultrasonication device USGD-100 from Telsonic AG, and a measuring duration of about 20 seconds. The measurement was carried out twice.
The particle sizes at the undersize values of 10%, 50% and 90% (x10, x50, x90) were evaluated from the cumulative volume distribution after 240 seconds sonication. This was determined to be representative of the primary particle sizes.

[5] = Wall friction angle measurement (FT-4 powder rheometer, stainless steel); format: physicochemical; conditions: 316 Stainless Steel discs, 1.2 microns average roughness
From the text: The wall friction test method has been developed to assess the interaction between the drug substance and stainless steel. The apparatus used is a FT-4 powder rheometer from Freeman technology.
N-(5-cyano-4-((2-methoxyethyl)amino)pyridin-2-yl)-7-formyl-6-((4-methyl-2-oxopiperazin-1-yl)methyl)-3,4-dihydro-1,8-naphthyridine-1(2H)-carboxamide particles obtained by the process of the present invention and particles obtained by the process described in PCT/IB2014/065585 were placed in a vessel containing the sample and a wall friction head to induce both vertical and rotational stresses. The powder sample is prepared by conditioning and then pre-consolidation using the standard FT4 blade and vented piston.
The wall friction head equipped with 1.2 microns average roughness of 316 Stainless Steel discs moves downwards to the surface of the sample and induces a normal stress as the disc contacts the top of the sample. The head continues to move downwards until the required normal stress is established. […] The torque required to maintain this rotational is measured which enables a “steady-state” shear stress to be calculated. […] A series of shear stress values is measured for a range of target applied stresses. […] The wall friction angle is then calculated by drawing a best fit line through the data points on the graph, and measuring the angle subtended between this best fit line and the horizontal. […]

[6] = Compressibility measurement (FT-4 powder rheometer); format: physicochemical; conditions: measured at 15 kPa normal stress
From the text: Compressibility is a measure of how density changes as a function of applied normal stress. By definition, compressibility is the percent change in volume after compression (%). The measurements were made using a FT-4 powder rheometer from Freeman technology. N-(5-cyano-4-((2-methoxyethyl)amino)pyridin-2-yl)-7-formyl-6-((4-methyl-2-oxopiperazin-1-yl)methyl)-3,4-dihydro-1,8-naphthyridine-1(2H)-carboxamide particles obtained by the process of the present invention and particles obtained by the process described in PCT/IB2014/065585 were placed in a vessel and a vented piston was used to compress the particles. The vented piston is designed such that the compression face is constructed from a woven stainless steel mesh and allows the entrained air in the powder to escape uniformly across the surface of the powder bed. A normal stress was applied in 8 sequential compression steps beginning at 0.5 kPa and ending at 15 kPa. In each step, the normal stress was held constant for 60 seconds and the compressibility was automatically calculated as a percentage change in volume. The results were plotted in FIG. 10. The compressibility percentage measured at 15 kPa was 54.14% and 54.63% for particles of the present invention. For the particles obtained by the process described in PCT/IB2014/065585, the compressibility percentage measured at 15 kPa was 49.93%.

Structure (SMILES) | IC50 [1] [nM] | basic flow energy [2] [mJ] | IC50 [3] [nM] | median particle size (x50 or d50) [4] | particle size x10 or d10 [4] | particle size x90 or d90 [4] | wall friction angle [5] [°] | compressibility percentage [6] [%] | basic flow energy ([2]; listed as particles obtained by the process described in PCT/IB2014/065585) [mJ]
COCCNc1cc(NC(=O)N2CCCc3cc(CN4CCN(C)CC4=O)c(C=O)nc32)ncc1C#N [Example 1, N-(5-cyano-4-((2-methoxyethyl)amino)pyridin-2-yl)-7-formyl-6-((4-methyl-2-oxopiperazin-1-yl)methyl)-3,4-dihydro-1,8-naphthyridine-1(2H)-carboxamide in citric acid salt form 1:1] | 12 | 65.07 | 60.9 |  |  |  |  |  | 
COCCNc1cc(NC(=O)N2CCCc3cc(CN4CCN(C)CC4=O)c(C=O)nc32)ncc1C#N.O=C(O)CC(O)(CC(=O)O)C(=O)O [Example 1a, N-(5-cyano-4-((2-methoxyethyl)amino)pyridin-2-yl)-7-formyl-6-((4-methyl-2-oxopiperazin-1-yl)methyl)-3,4-dihydro-1,8-naphthyridine-1(2H)-carboxamide in citric acid form (1:1)] |  | 39.17 |  |  |  |  |  |  | 
COCCNc1cc(NC(=O)N2CCCc3cc(CN4CCN(C)CC4=O)c(C=O)nc32)ncc1C#N.O=C(O)CC(O)(CC(=O)O)C(=O)O [Reference Example 1, N-(5-cyano-4-((2-methoxyethyl)amino)pyridin-2-yl)-7-formyl-6-((4-methyl-2-oxopiperazin-1-yl)methyl)-3,4-dihydro-1,8-naphthyridine-1(2H)-carboxamide in citric acid form (1:1)] |  |  |  | about 3 microns | about 1 micron | about 7 micron | 43.18 | 49.93 | 185.20
